The results in this text go back to US20230192626A1 (Baylor College of Medicine, priority 2020, published 2023).

For this experiment, the target named is T1, Human sEH (hsEH) (Homo sapiens, UniProt P34913).
T1 construct: purchased Cayman Chemicals
T1 sequence (P34913 1-555): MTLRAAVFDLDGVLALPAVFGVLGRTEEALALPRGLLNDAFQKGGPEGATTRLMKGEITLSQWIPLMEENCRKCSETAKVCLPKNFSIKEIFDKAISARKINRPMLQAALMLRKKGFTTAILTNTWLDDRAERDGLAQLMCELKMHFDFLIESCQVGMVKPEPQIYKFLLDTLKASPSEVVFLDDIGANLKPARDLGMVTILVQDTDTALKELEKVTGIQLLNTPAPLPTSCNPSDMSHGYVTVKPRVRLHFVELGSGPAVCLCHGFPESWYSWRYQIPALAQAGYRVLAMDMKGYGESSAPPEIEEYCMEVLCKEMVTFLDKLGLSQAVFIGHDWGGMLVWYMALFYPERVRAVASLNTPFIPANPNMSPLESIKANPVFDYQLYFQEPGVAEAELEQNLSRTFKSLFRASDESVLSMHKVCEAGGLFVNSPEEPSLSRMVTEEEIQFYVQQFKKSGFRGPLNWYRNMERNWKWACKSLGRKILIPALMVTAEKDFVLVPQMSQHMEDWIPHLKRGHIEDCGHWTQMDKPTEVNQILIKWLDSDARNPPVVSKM
The experiment can be described thus: fluorescence-based sEH biochemical inhibition assay (PHOME substrate). The settings on record: Table 1; hsEH 5 nM, PHOME 50 μM, 30° C. The method, then:
The benzimidazole-based compounds synthesized according to Example 1 were measured for activity. Using a fluorescence-based sEH biochemical inhibition assay, the IC50 value was measured for each benzimidazole-based compound. Human sEH (hsEH) and its substrate PHOME were purchased from Cayman Chemicals. IC50 values of hsEH inhibitors were determined by fluorescence. IC50 is defined as the concentration of the inhibitor that blocks 50% of the enzymatic activity. To a 96-well plate containing 10 μL enzyme (5 nM in water), 60 μL of H2O and 10 μL BisTris-HCl buffer (25 mM, pH 7.0) were added inhibitors with different concentrations. The mixture was incubated for 5 min at 30° C. prior to addition of 10 μL of PHOME substrate (50 μM). Fluorescence were measured at 30° C. with an excitation wavelength of 330 nm and an emission wavelength of 465 nm using a BioTek H1 plate reader. The IC50 values were calculated by non-linear regression fitting. The curve was generated from at least three separate runs, each in duplicates. Results are given as means and standard deviations. In Table 1, an IC50 value less than or equal to 1 μM is indicated as an “A.” an IC50 value from greater than 1 μM to less than 10 μM is indicated as a “B′” and an IC50 value of greater than or equal to 10 μM is indicated as a “C.”
Additional benzimidazole-based compounds as described herein were measured for activity according to the procedure outlined in Example 2. Briefly, using a fluorescence-based sEH biochemical inhibition assay, the IC50 value was measured for each benzimidazole-based compound.

As usually defined, the IC50 is the midpoint of a concentration-inhibition curve. A lower IC50 goes with higher potency. Molecule `FC(F)(F)c1ccc(-c2nc3ccccc3[nH]2)cc1` [Compound 36, 2-(4-(trifluoromethyl)phenyl)-1H-benzo[d]imidazole] registered an IC50 of 1 to 10 µM.
In turn, `Fc1cc2nc(-c3ccc(C(F)(F)F)cc3)[nH]c2cc1Cl` [Compound 43, 6-chloro-5-fluoro-2-(4-(trifluoromethyl)phenyl)-1H-benzo[d]imidazole] came in with an IC50 not above 1 µM.
Molecule `COc1cc2nc(-c3ccc(C(F)(F)F)cc3)[nH]c2cc1OC` [Compound 42, 5,6-dimethoxy-2-(4-(trifluoromethyl)phenyl)-1H-benzo[d]imidazole] yielded a concentration for half-maximal inhibition (IC50) of 1 to 10 µM.
Molecule `Cc1cc2nc(C3CCN(C)CC3)[nH]c2cc1C` [Compound 18, 5,6-dimethyl-2-(1-methylpiperidin-4-yl)-1H-benzo[d]imidazole] showed an IC50 not below 10 µM.
Molecule `Cc1cc2nc(-c3ccc(=O)[nH]c3)[nH]c2cc1C` [Compound 23, 5-(5,6-dimethyl-1H-benzo[d]imidazol-2-yl)pyridin-2(1H)-one] had an IC50 not below 10 µM.
In turn, `COc1ccc(-c2nc3cc(F)c(F)cc3[nH]2)cc1` [Compound 46, 5,6-difluoro-2-(4-methoxyphenyl)-1H-benzo[d]imidazole] returned an IC50 not above 1 µM.
The molecule `Fc1cc2nc(-c3ccc(-c4ccccc4)cc3)[nH]c2cc1F` [Compound 17, 2-([1,1′-biphenyl]-4-y)-5,6-difluoro-1H-benzo[d]imidazole] gave an IC50 of 1 to 10 µM.
`N[C@@H](c1ccccc1)c1nc2cc(F)c(F)cc2[nH]1` [Compound 1, (S)-(5,6-difluoro-1λ^2-benzo[d]imidazol-2-yl)(phenyl)methanamine] displayed a 50% inhibitory concentration (IC50) not below 10 µM.
The molecule `Cc1cc2nc(-c3ccnn3C)[nH]c2cc1C` [Compound 31, 5,6-dimethyl-2-(1-methyl-1H-pyrazol-5-yl)-1H-benzo[d]imidazole] had a concentration for half-maximal inhibition (IC50) not below 10 µM.
`COc1cc(-c2nc3cc(C)c(C)cc3[nH]2)ccn1` [Compound 24, 2-(2-methoxypyridin-4-yl)-5,6-dimethyl-1H-benzo[d]imidazole] displayed an IC50 of 1 to 10 µM.
`Cc1ccc2[nH]c(-c3ccc(C(F)(F)F)cc3)nc2c1C` [Compound 41, 4,5-dimethyl-2-(4-(trifluoromethyl)phenyl)-1H-benzo[d]imidazole] came in with an IC50 not above 1 µM.
Molecule `Cc1cc2nc(-c3ccc(C(C)(C)C)cc3)[nH]c2cc1C` [Compound 26, 2-(4-(tert-butyl)phenyl)-5,6-dimethyl-1H-benzo[d]imidazole] showed an IC50 not above 1 µM.
On to `Fc1cc2nc(-c3ccc(C(F)(F)F)cc3)[nH]c2cc1Br` [Compound 44, 6-bromo-5-fluoro-2-(4-(trifluoromethyl)phenyl)-1H-benzo[d]imidazole], for which the IC50 was not above 1 µM.
With `CC(=O)Nc1ccc(-c2nc3cc(F)c(F)cc3[nH]2)cc1` [Compound 47, N-(4-(5,6-difluoro-1H-benzo[d]imidazol-2-yl)phenyl)acetamide] the figure was not below 10 µM; with `Cc1cc2nc(-c3ccccc3O)[nH]c2cc1C` [Compound 9, 2-(5,6-dimethyl-1H-benzo[d]imidazol-2-yl)phenol], not below 10 µM.
Turning to `Fc1cc2nc(-c3ccc(Oc4ccccc4)cc3)[nH]c2cc1F` [Compound 53, 5,6-difluoro-2-(4-phenoxyphenyl)-1H-benzo[d]imidazole], the IC50 is not above 1 µM.
As to `CC(C)(C)c1ccc2[nH]c(-c3ccc(C(F)(F)F)cc3)nc2c1` [Compound 40, 5-(tert-butyl)-2-(4-(trifluoromethyl)phenyl)-1H-benzo[d]imidazole], the IC50 fell in the range of 1 to 10 µM.
In turn, `N#Cc1ccc(-c2nc3cc(F)c(F)cc3[nH]2)cc1` [Compound 54, 4-(5,6-difluoro-1H-benzo[d]imidazol-2-yl)benzonitrile] displayed an IC50 not above 1 µM.
The molecule `Cc1cc2nc(-c3ccc(F)cc3F)[nH]c2cc1C` [Compound 10, 2-(2,4-difluorophenyl)-5,6-dimethyl-1H-benzo[d]imidazole] yielded a concentration for half-maximal inhibition (IC50) not below 10 µM.
To `Fc1cc2nc(-c3ccc(-c4ccccc4)cc3)[nH]c2cc1Br` [Compound 45, 2-([1,1′-biphenyl]-4-yl)-6-bromo-5-fluoro-1H-benzo[d]imidazole] belongs not above 1 µM; to `Fc1cc2nc(-c3ccnc(C(F)(F)F)c3)[nH]c2cc1F` [Compound 50, 5,6-difluoro-2-(2-(trifluoromethyl)pyridin-4-yl)-1H-benzo[d]imidazole], 1 to 10 µM; to `COC(=O)c1ccc(-c2nc3cc(F)c(F)cc3[nH]2)cc1` [Compound 57, Methyl 4-(5,6-difluoro-1H-benzo[d]imidazol-2-yl)benzoate], not below 10 µM.
Molecule `Fc1ccc2[nH]c(-c3ccc(C(F)(F)F)cc3)nc2c1F` [Compound 48, 4,5-difluoro-2-(4-(trifluoromethyl)phenyl)-1H-benzo[d]imidazole] yielded a concentration for half-maximal inhibition (IC50) not above 1 µM.
With `Fc1cc2nc(-c3ccc(-c4nnn[nH]4)cc3)[nH]c2cc1F` [Compound 61, 2-(4-(1H-tetrazol-5-yl)phenyl)-5,6-difluoro-1H-benzo[d]imidazole] the figure was not below 10 µM.
With `Cc1ccc(-c2nc3cc(C)c(C)cc3[nH]2)cn1` [Compound 21, 5,6-dimethyl-2-(6-methylpyridin-3-yl)-1H-benzo[d]imidazole] the figure was 1 to 10 µM; with `Cc1cc2nc(-c3ccncc3)[nH]c2cc1C` [Compound 29, 5,6-dimethyl-2-(pyridin-4-yl)-1H-benzo[d]imidazole], not below 10 µM.
To `CCc1ccc(-c2nc3cc(Br)c(Br)cc3[nH]2)cc1` [Compound 39, 5,6-dibromo-2-(4-ethylphenyl)-1H-benzo[d]imidazole] belongs 1 to 10 µM; to `Fc1cc2nc(-c3ccc(-c4nnco4)cc3)[nH]c2cc1F` [Compound 58, 2-(4-(5,6-difluoro-1H-benzo[d]imidazol-2-yl)phenyl)-1,3,4-oxadiazole], not below 10 µM.
`Cc1cc2nc(-c3ccc(C(F)(F)F)cc3)[nH]c2cc1C` [Compound 19, 5,6-dimethyl-2-(4-(trifluoromethyl)phenyl)-1H-benzo[d]imidazole] yielded an IC50 not above 1 µM.
With `CCc1ccc(-c2nc3cc(F)c(F)cc3[nH]2)cc1` [Compound 35, 2-(4-ethylphenyl)-5,6-difluoro-1H-benzo[d]imidazole imidazole], the IC50 was not above 1 µM.
Turning to `C[C@H](N)c1nc2cc(F)c(F)cc2[nH]1` [Compound 2, (S)-1-(5,6-difluoro-1λ^2-benzo[d]imidazol-2-yl)ethan-1-amine], the IC50 was not below 10 µM.
Regarding `Cc1cc2nc(-c3ccc(F)cn3)[nH]c2cc1C` [Compound 22, 2-(5-fluoropyridin-2-yl)-5,6-dimethyl-1H-benzo[d]imidazole], the IC50 lay within 1 to 10 µM.
In turn, `c1ccc(-c2nc3ccccc3[nH]2)c(-c2nc3ccccc3[nH]2)c1` [Compound 15, 1,2-bis(1H-benzo[d]imidazol-2-yl)benzene] yielded an IC50 not below 10 µM.
Regarding `O=c1[nH]nc(-c2ccc(-c3nc4cc(F)c(F)cc4[nH]3)cc2)o1` [Compound 55, 5-(4-(5,6-difluoro-1H-benzo[d]imidazol-2-yl)phenyl)-1,3,4-oxadiazol-2(3H)-one], the half-inhibitory concentration (IC50) is not above 1 µM.
For the molecule `Cc1noc(-c2ccc(-c3nc4cc(F)c(F)cc4[nH]3)cc2)n1` [Compound 60, 5-(4-(5,6-difluoro-1H-benzo[d]imidazol-2-yl)phenyl)-3-methyl-1,2,4-oxadiazole], the IC50 is not below 10 µM.
To `Fc1cc2nc(-c3ccc(-c4ccncc4)cc3)[nH]c2cc1F` [Compound 59, 5,6-difluoro-2-(4-(pyridin-4-yl)phenyl)-1H-benzo[d]imidazole] belongs 1 to 10 µM; to `Fc1ccc(Oc2ccc(-c3nc4cc(F)c(F)cc4[nH]3)cc2)cc1` [Compound 52, 5,6-difluoro-2-(4-(4-fluorophenoxy)phenyl)-1H-benzo[d]imidazole], not above 1 µM; to `Fc1cc2nc(-c3ccc(C(F)(F)F)cc3)[nH]c2cc1F` [Compound 16, 5,6-difluoro-2-(4-(trifluoromethyl)phenyl)-1H-benzo[d]imidazole], not above 1 µM.
`Cc1cc2nc(-c3cccnc3)[nH]c2cc1C` [Compound 30, 5,6-dimethyl-2-(pyridin-3-yl)-1H-benzo[d]imidazole] had an IC50 not below 10 µM.
As to `O=C(Cc1ccccc1)Nc1nc2ccccc2[nH]1` [Compound 13, N-(1H-benzo[d]imidazol-2-yl)-2-phenylacetamide], the IC50 is not below 10 µM.
